Results: patent US4803198A, “1-Phenyl-2-aminocarbonylindole compounds, preparation thereof and pharmaceutical compositions containing them” (Kali-Chemie Pharma GmbH, priority 1981, dated 1989)
Like-named read-outs stand apart in the source and are kept apart here.

Assays:
[1] = tested on: disorders in cardiac rhythm induced by aconitine infusion; experiment: Inhibition of disorders in cardiac rhythm induced by aconitine infusion (method of Raschak); type: in vivo, rats; conditions: Rattus norvegicus, iv
Experimental: The compounds also show an inhibiting action on disorders in cardiac rhythm induced by aconitine infusion [extrasystoles (ES), ventricular tachycardia (VT) and ventricular fibrillation (VF)] in rats in the experimental method of Raschak (Arzneimittelforsch. 25 (1975) 639-641). Thus, for example, the minimum effective doses of 2-[3-(N,N-diethylamino)-2-hydroxypropylaminocarbonyl]-3-methoxy-1-phenylindole on intravenous administration 5 minutes before the start of aconitine infusion are as follows: […]

[2] = tested on: isolated left auricle of female guinea pigs; experiment: Functional refractory period prolonging and contraction force reducing action, double-stimulation method of Govier; conditions: isolated atrium from guinea pigs; for EC (125%) / IC25: Cavia porcellus; for EC (125%): 0.3 h, 18 minutes after administration, read-out: FRP: concentration at which the functional refractory period is increased to 125%; for IC25: read-out: Force: concentration at which the contraction force is reduced to 75% of the starting value; for Force/FRP quotient of concentrations: indication of therapeutic range
From the text: The favourable relationship between the functional refractory period prolonging action (FRP) and the contraction force reducing action (force) of the compounds can also be shown on the isolated left auricle of female guinea pigs of 300-400 g body weight by the double-stimulation method of Govier [J. Pharmakol.

Acute toxicity = conditions: in vivo; for LD50: mouse
From the text: This gives a therapeutic range (=quotient LD50 .sbsb.mouse /EDmin) of 8-17.

mice = conditions: mouse, in vivo
[3] = tested on: ventricular fibrillation caused by inhalation of chloroform; experiment: Inhibition of ventricular fibrillation caused by inhalation of chloroform (method of Lawson); type: in vivo; conditions: mice, 10 min before chloroform
Experimental: For example, in mice, the compounds have an inhibiting effect on ventricular fibrillation caused by inhalation of chloroform. The effect of the compounds on ventricular fibrillation in mice caused by inhalation of chloroform leading to rapid cessation of breathing is determined by the method of Lawson (J. Pharmacol. Exp. Ther. 160, 22-23).
In this experimental procedure, the minimum toxic dose can also be determined at the same time. The test substance, dissolved in 0.9% strength sodium chloride solution, is administered intraperitoneally to female mice of 17-24 g body weight. The animals are kept individually in glass beakers, where they are observed for possible toxic symptoms. Ten minutes after administration of the test substance, the animals are transferred to covered 300 ml glass beakers containing a cottonwool swab soaked with about 20 ml of chloroform. As soon as breathing begins to stop, the heart is exposed and the ventricular rhythm and rate are observed visually. The percentage of animals protected from ventricular fibrillation by the dose administered is given.
in the test described above, the compounds of formula I display antiarrhythmic actions in a dose range from 0.1 to 100 mg/kg.
The Example numbers given for the compounds of formula I relate to the preparation Exaples below.

Row | SMILES | Minimum toxic dose (mice; ip) [mg/kg] | Minimum toxic dose (mice; po) [mg/kg] | % of protected animals ([3]; dose 100 mg/kg ip) [%] | further results
1 | CCN(CC)CC(O)CNC(=O)c1c(OC)c2ccccc2n1-c1ccccc1 (stereo not shown) [Example 1, 2-[3-(N,N-Diethylamino)-2-hydroxypropylaminocarbonyl]-3-methoxy-1-phenylindole] | 300 | 100 | – | minimal effective dose ([1]; read-out: Minimum effective inhibiting dose, extrasystoles): 2.15 µmol/kg; minimal effective dose ([1]; read-out: Minimum effective inhibiting dose, heart rate): > 12 µmol/kg; minimal effective dose ([1]; read-out: Minimum effective inhibiting dose, ventricular fibrillation): 4.64 µmol/kg; minimal effective dose ([1]; read-out: Minimum effective inhibiting dose, ventricular tachycardia): 2.15 µmol/kg; EC (125%) [2]: 3.6 µM; IC25 [2]: 6.3 µM; Force/FRP quotient of concentrations [2]: 1.8; LD50 (Acute toxicity; ip, administered intraperitoneally): 164 µmol/kg; LD50 (Acute toxicity; iv, administered intravenously): 37.3 µmol/kg; selectivity ratio (Acute toxicity; LD50 mouse over minimum effective dose in aconitine test, read-out: therapeutic range (=quotient LD50 mouse/EDmin)): 8 to 17; % of protected animals ([3]; dose 25 mg/kg ip): 100%
2 | CN(C)CCNC(=O)c1c(O)c2ccccc2n1-c1ccc(Cl)cc1 [Example 2, 2-[2-(N,N-Dimethylamino)-ethylaminocarbonyl]-3-hydroxy-1-(4'-chlorophenyl)-indole] | ≥ 100 | ≥ 300 | 100 | –
3 | COc1c(C(=O)NCCN(C)C)n(-c2ccc(Cl)cc2)c2ccccc12 [Example 15] | ≥ 100 | ≥ 300 | 100 | –
4 | CCN(CC)CCCNC(=O)c1c(OC)c2ccccc2n1-c1ccccc1 [Example 20] | 300 | 50 | – | EC (125%) [2]: 0.66 µM; IC25 [2]: 3.57 µM; Force/FRP quotient of concentrations [2]: 5.4; % of protected animals ([3]; dose 10 mg/kg ip): 100%
5 | CCN(CC)CCCCNC(=O)c1c(OC)c2ccccc2n1-c1ccccc1 [Example 22] | 300 | 50 | – | % of protected animals ([3]; dose 10 mg/kg ip): 66.7%
6 | Cc1cccc(-n2c(C(=O)NCCN(C)C)c(O)c3ccccc32)c1C [Example 25] | ≥ 100 | ≥ 300 | 66.7 | –
7 | COc1c(C(=O)NCCN(C)C)n(-c2ccccc2)c2ccc(Br)cc12 [Example 30] | ≥ 300 | 200 | – | % of protected animals ([3]; dose 50 mg/kg ip): 33.3%
